The results in this text go back to paper PMC6270595, “Synthesis and Cytotoxicity of Novel 10-Substituted Dihydroartemisinin Derivatives Containing N-Arylphenyl-ethenesulfonamide Groups” (Molecules, 2013).

One may read the IC50 as the concentration needed to halve the response being measured. In general, melting point refers to the temperature of the solid-liquid transition.

Series [1] concerns MDA-MB-231 (human breast cancer). As to the kind of experiment: MTT cytotoxicity assay, MDA-MB-231. It is filed as cell-based. Particulars: Homo sapiens, MDA-MB-231 cells, 50% cell growth inhibition after 72 h of drug exposure. The procedure:
(§1) The cytotoxic activities of target compounds were evaluated against HT-29 (human colon cancer), MDA-MB-231 (human breast cancer), U87MG (human glioblastoma), H460 (human lung cancer), A549 (non-small-cell lung adenocarcinoma), HL-60 (human leukemic) cancer cell lines and one normal cell line WI-38 (human fetal lung fibroblasts) together with references DHA and cisplatin by a MTT assay.
(§2) The cytotoxic activities of compounds 3a–h and 6a–j were evaluated with the HT-29, MDA-MB-231, U87MG, H460, A549, HL-60 cancer cell lines and one normal cell line, WI-38, by the standard MTT assay in vitro [20], with DHA as the positive control. The cell lines were cultured in minimum essential medium (MEM) supplement with 10% fetal bovine serum (FBS). Approximately 4 × 10^3 cells, suspended in MEM medium, were plated on to each well of a 96-well plate and incubated in 5% CO2 at 37 °C for 24 h. The test compounds at indicated final concentrations were added to the culture medium and the cell cultures were continued for 72 h. Fresh MTT was added to each well at a terminal concentration of 5 μg/mL and incubated with cells at 37 °C for 4 h. The formazan crystals were dissolved in 100 μL DMSO each well, and the absorbency at 492 nm (for absorbance of MTT formazan) and 630 nm (for the reference wavelength) was measured with the ELISA reader. All of the compounds were tested twice in each of the cell lines. The results expressed as IC50 (inhibitory concentration 50%) were the averages of two determinations and calculated using the Bacus Laboratories Incorporated Slide Scanner (Bliss) software.

The subject of series [2] is HT-29 (human colon cancer). Nature of the series: MTT cytotoxicity assay, HT-29. The format is cell-based. As to conditions: Homo sapiens, HT-29 cells, 50% cell growth inhibition after 72 h of drug exposure, read-out: IC50(μM) HT29. The procedure: as §1, §2
The test system of series [3] is U87MG (human glioblastoma). Nature of the series: MTT cytotoxicity assay, U87MG. The format is cell-based. Particulars: Homo sapiens, U-87 MG; U87MG cells, 50% cell growth inhibition after 72 h of drug exposure, MTT. The method, then:
as §1, §2
For orientation: Tetrazolium assays rely on reduction of a dye to a coloured formazan, in cell work by metabolically active cells.

Series [4] deals with H460 (human lung cancer). Nature of the series: MTT cytotoxicity assay, H460. It is filed as cell-based. As to conditions: Homo sapiens, NCI-H460; H460 cells, 50% cell growth inhibition after 72 h of drug exposure, MTT. The method, then:
as §1, §2

Series [5] relates to A549 (non-small-cell lung adenocarcinoma). Nature of the series: MTT cytotoxicity assay, A549. It is filed as cell-based, human. As to conditions: Homo sapiens, A549 cells, 50% cell growth inhibition after 72 h of drug exposure. The method, then: as §1, §2
The test system of series [6] is HL-60 (human leukemic). Nature of the series: MTT cytotoxicity assay, HL-60. As to conditions: Homo sapiens; HL-60 cells, 50% cell growth inhibition after 72 h of drug exposure, MTT. It is filed as cell-based. The procedure: as §1, §2
Series [7] relates to WI-38 (human fetal lung fibroblasts). Nature of the series: MTT cytotoxicity assay, normal cell line WI-38. The format is cell-based. Particulars: Homo sapiens, normal WI-38 cells, 50% cell growth inhibition after 72 h of drug exposure, read-out: IC50(μM) WI38. The procedure: as §1, §2

As to `C[C@@H]1CC[C@H]2[C@@H](C)C(OCCNC(=O)c3ccc(COc4ccc(/C=C/S(=O)(=O)Nc5cccc(Cl)c5)cc4)cc3)O[C@@H]3O[C@@]4(C)CC[C@@H]1[C@]32OO4` (stereo partly drawn) [Compound 6b, (E)-N-(2-(10β-Dihydroartemisinoxy)ethyl)-4((4-(2-(N-(3-chlorophenyl)sulfamoyl)vinyl)phenoxy)methyl)benzamide], the melting point lay within 146 to 149 °C. In addition, half-maximal inhibition in series [1] (IC50) was put at 2.23 µM. For the same molecule, the IC50 in series [2] stood at 1.11 µM. This molecule also registered an IC50 in series [3] of 4.52 µM. In series [4], 2.79 µM corresponded to half-maximal inhibition (IC50). Half-maximal inhibition in series [5] (IC50) required 2.86 µM. Further, in series [6], the IC50 worked out at 1.81 µM. Further, the IC50 in series [7] came out at 35.8 µM.

In the case of `Cc1ccc(F)c(NS(=O)(=O)/C=C/c2ccc(OCc3ccc(C(=O)NCCOC4O[C@@H]5O[C@@]6(C)CC[C@H]7[C@H](C)CC[C@@H]([C@H]4C)[C@@]57OO6)cc3)cc2)c1` (stereo partly drawn) [Compound 6d, (E)-N-(2-(10β-Dihydroartemisinoxy)ethyl)-4((4-(2-(N-(2-fluoro-5-methylphenyl)sulfamoyl)vinyl)phenoxy)methyl)benzamide], the melting point was 135 to 137 °C. Further, in series [1], the IC50 turned out to be 1.33 µM. For the same molecule, the IC50 in series [2] came out at 1.82 µM. This molecule also came in with a 50% inhibitory concentration (IC50) in series [3] of 17.2 µM. The molecule also had an IC50 in series [4] of 10.9 µM. Moreover, the IC50 in series [5] stood at 9.72 µM. This molecule also returned an IC50 in series [6] of 1.3 µM. In series [7], the IC50 is 19.3 µM.

Consider `Cc1ccccc1NS(=O)(=O)/C=C/c1ccc(OCc2ccc(C(=O)NCCOC3O[C@@H]4O[C@@]5(C)CC[C@H]6[C@H](C)CC[C@@H]([C@H]3C)[C@@]46OO5)cc2)cc1` (stereo partly drawn) [Compound 6e, (E)-N-(2-(10β-Dihydroartemisinoxy)ethyl)-4((4-(2-(N-(2-methylphenyl)sulfamoyl)vinyl)phenoxy)methyl)benzamide], for which the melting point lay in the range of 143 to 145 °C. This molecule also gave an IC50 in series [1] of 2.1 µM. The IC50 in series [2] is 2.09 µM. Also, half-maximal inhibition in series [3] (IC50) was put at 3.65 µM. The IC50 in series [4] is 1.92 µM. In series [5], this molecule yielded an IC50 of 5.47 µM. The molecule further displayed an IC50 in series [6] of 3.21 µM. In addition, in series [7], the IC50 stood at 16.4 µM.

`C[C@@H]1CC[C@H]2[C@@H](C)C(OCCNC(=O)c3ccc(COc4ccc(/C=C/S(=O)(=O)Nc5ccc(Cl)cc5)cc4)cc3)O[C@@H]3O[C@@]4(C)CC[C@@H]1[C@]32OO4` (stereo partly drawn) [Compound 6f, (E)-N-(2-(10β-Dihydroartemisinoxy)ethyl)-4((4-(2-(N-(4-chlorophenyl)sulfamoyl)vinyl)phenoxy)methyl)benzamide] gave a melting point of 138 to 141 °C. This molecule registered an IC50 in series [1] of 2.38 µM. Moreover, the IC50 in series [2] amounted to 0.92 µM. Also, the IC50 in series [3] amounted to 1.59 µM. This molecule also came in with an IC50 in series [4] of 1.77 µM. The same molecule showed an IC50 in series [5] of 5.72 µM. Further, the 50% inhibitory concentration (IC50) in series [6] was 1.33 µM. Further, the half-inhibitory concentration (IC50) in series [7] came to 24.7 µM.

The molecule `C[C@@H]1CC[C@H]2[C@@H](C)C(OCCNC(=O)c3ccc(COc4ccc(/C=C/S(=O)(=O)Nc5ccccc5Cl)cc4)cc3)O[C@@H]3O[C@@]4(C)CC[C@@H]1[C@]32OO4` (stereo partly drawn) [Compound 6g, (E)-N-(2-(10β-Dihydroartemisinoxy)ethyl)-4((4-(2-(N-(2-chlorophenyl)sulfamoyl)vinyl)phenoxy)methyl)benzamide] displayed a melting point of 147 to 150 °C. Half-maximal inhibition in series [1] (IC50) required 0.72 µM. In series [2], the half-maximal inhibitory concentration (IC50) was 0.45 µM. In series [3], this molecule gave an IC50 of 2.69 µM. In addition, the IC50 in series [4] amounted to 0.89 µM. The molecule further registered an IC50 in series [5] of 5.31 µM. This molecule displayed an IC50 in series [6] of 0.27 µM. The IC50 in series [7] was determined as 27.2 µM.

The molecule `C[C@@H]1CC[C@H]2[C@@H](C)C(OCCNC(=O)c3ccc(COc4ccc(/C=C/S(=O)(=O)Nc5c(Cl)cccc5Cl)cc4)cc3)O[C@@H]3O[C@@]4(C)CC[C@@H]1[C@]32OO4` (stereo partly drawn) [Compound 6h, (E)-N-(2-(10β-Dihydroartemisinoxy)ethyl)-4((4-(2-(N-(2,6-dichlorophenyl)sulfamoyl)vinyl)phenoxy)methyl)benzamide] gave a melting point of 151 to 153 °C. The same molecule returned an IC50 in series [1] of 0.88 µM. For the same molecule, the half-maximal inhibitory concentration (IC50) in series [2] is 0.44 µM. Also, the IC50 in series [3] stood at 3.12 µM. In series [4], this molecule had an IC50 of 1.21 µM. The molecule further came in with an IC50 in series [5] of 2.34 µM. In series [6], this molecule gave an IC50 of 0.18 µM. The IC50 in series [7] turned out to be 23.5 µM.

Turning to `COc1cccc(NS(=O)(=O)/C=C/c2ccc(OCc3ccc(C(=O)NCCOC4O[C@@H]5O[C@@]6(C)CC[C@H]7[C@H](C)CC[C@@H]([C@H]4C)[C@@]57OO6)cc3)cc2)c1` (stereo partly drawn) [Compound 6i, (E)-N-(2-(10β-Dihydroartemisinoxy)ethyl)-4((4-(2-(N-(3-methoxyphenyl)sulfamoyl)vinyl)phenoxy)methyl)benzamide], the melting point was in the range of 144 to 145 °C. It took 8.89 µM to reach half-maximal inhibition in series [1] (IC50). Also, the IC50 in series [2] was 8.95 µM. Further, the IC50 in series [3] is above 100 µM. The IC50 in series [4] stood at 16.3 µM. Further, inhibition in series [5] was half-maximal at 11.3 µM (IC50). This molecule also returned an IC50 in series [6] of 8.53 µM. Besides, the IC50 in series [7] was found to be 19.2 µM.

`C[C@@H]1CC[C@H]2[C@@H](C)C(OCCNC(=O)c3ccc(COc4ccc(/C=C/S(=O)(=O)Nc5ccc(F)c(C(F)(F)F)c5)cc4)cc3)O[C@@H]3O[C@@]4(C)CC[C@@H]1[C@]32OO4` (stereo partly drawn) [Compound 6j, (E)-N-(2-(10β-Dihydroartemisinoxy)ethyl)-4((4-(2-(N-(3-trifluoromethyl-4fluorophenyl)sulfamoyl)vinyl)phenoxy)methyl)benzamide] yielded a melting point of 152 to 154 °C. This molecule also gave an IC50 in series [1] of 1.05 µM. In series [2], the IC50 is 0.38 µM. The molecule also gave an IC50 in series [3] of 3.27 µM. This molecule also came in with an IC50 in series [4] of 5.31 µM. The molecule also gave an IC50 in series [5] of 2.78 µM. Also, the IC50 in series [6] came to 1.27 µM. Besides, the IC50 in series [7] was found to be 30.4 µM.
